Calls of active or inactive are those of the source. The rule behind the calls is not given here.
Legend:
Staphylococcus aureus = experiment: Antimicrobial activity against Staphylococcus aureus; type: functional, organism-based
Bacillus subtilis = experiment: Antimicrobial activity against Bacillus subtilis; type: functional, organism-based

SMILES	Activity (Staphylococcus aureus)	Activity (Bacillus subtilis)
Oc1c(Br)c(Br)c(Br)c(Br)c1Oc1ccccc1Br	Active	Active
COc1c(Br)c(Br)c(Br)c(Br)c1Oc1ccccc1Br	inactive	inactive
COc1c(Br)c(Br)c(Br)c(Br)c1Oc1ccc(Br)cc1Br	inactive	inactive
Oc1c(Br)c(Br)c(Br)c(Br)c1Oc1ccc(Br)cc1Br	Active	Active

From ChEMBL document CHEMBL1158909, “A New Brominated Diphenyl Ether from a Philippine Dysidea Species” (J Nat Prod, 1990)
